This note sets out measurements from publication PMC6199744, “Development of Chemical Proteomics for the Folateome and Analysis of the Kinetoplastid Folateome” (ACS Infectious Diseases, 2018).

Common to all, as to format: binding
Assay [1] has as its target T1, HeLa cell extract proteins (Homo sapiens, UniProt P26641).
T1 construct: endogenous in cells; host or cells: HeLa cell extract

Assay [2] addresses T2, HeLa cell extract proteins (Homo sapiens, UniProt P31153).
T2 construct: endogenous in cells; host or cells: HeLa cell extract

For assay [3], the target named is T3, HeLa cell extract proteins (Homo sapiens, UniProt P36639).
T3 construct: endogenous in cells; host or cells: HeLa cell extract

Assay [4] concerns the target T4, HeLa cell extract proteins (Homo sapiens, UniProt P43362).
T4 construct: endogenous in cells; host or cells: HeLa cell extract
T4 sequence (P43362 1-315): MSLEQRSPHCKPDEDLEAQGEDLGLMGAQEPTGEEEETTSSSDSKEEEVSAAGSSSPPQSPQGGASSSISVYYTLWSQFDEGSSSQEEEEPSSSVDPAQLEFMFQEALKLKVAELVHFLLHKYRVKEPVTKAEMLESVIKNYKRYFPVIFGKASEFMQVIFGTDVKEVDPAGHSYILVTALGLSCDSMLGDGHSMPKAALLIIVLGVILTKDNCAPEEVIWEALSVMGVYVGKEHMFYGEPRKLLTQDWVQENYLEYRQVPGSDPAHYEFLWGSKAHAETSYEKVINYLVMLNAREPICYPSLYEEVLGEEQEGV

For assay [5], the target named is T5, HeLa cell extract proteins (Homo sapiens, UniProt P50395).
T5 construct: endogenous in cells; host or cells: HeLa cell extract
T5 sequence (P50395 1-445): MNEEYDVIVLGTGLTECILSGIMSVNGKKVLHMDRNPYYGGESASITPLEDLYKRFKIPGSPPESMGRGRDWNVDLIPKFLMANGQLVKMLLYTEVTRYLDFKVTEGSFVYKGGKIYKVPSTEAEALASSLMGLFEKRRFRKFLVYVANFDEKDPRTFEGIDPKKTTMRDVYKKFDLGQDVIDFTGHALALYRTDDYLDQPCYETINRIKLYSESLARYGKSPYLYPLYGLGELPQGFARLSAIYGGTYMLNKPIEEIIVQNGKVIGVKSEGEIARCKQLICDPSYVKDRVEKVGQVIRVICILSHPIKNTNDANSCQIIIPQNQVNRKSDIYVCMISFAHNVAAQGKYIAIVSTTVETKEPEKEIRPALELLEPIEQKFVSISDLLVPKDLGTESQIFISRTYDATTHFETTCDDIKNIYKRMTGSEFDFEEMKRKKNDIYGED

Assay [6] has as its target T6, HeLa cell extract proteins (Homo sapiens, UniProt P52597).
T6 construct: endogenous in cells; host or cells: HeLa cell extract
T6 sequence (P52597 1-415): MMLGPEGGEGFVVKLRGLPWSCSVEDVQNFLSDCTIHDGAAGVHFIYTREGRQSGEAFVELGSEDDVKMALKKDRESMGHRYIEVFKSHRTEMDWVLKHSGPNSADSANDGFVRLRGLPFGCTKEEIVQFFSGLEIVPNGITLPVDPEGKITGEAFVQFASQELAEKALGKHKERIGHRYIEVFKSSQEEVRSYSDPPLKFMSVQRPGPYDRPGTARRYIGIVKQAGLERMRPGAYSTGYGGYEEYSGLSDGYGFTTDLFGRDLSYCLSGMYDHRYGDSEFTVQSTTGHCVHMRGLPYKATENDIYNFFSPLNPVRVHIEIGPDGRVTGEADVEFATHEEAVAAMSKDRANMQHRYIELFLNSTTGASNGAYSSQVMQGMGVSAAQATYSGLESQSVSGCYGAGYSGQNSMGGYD

Assay [7] deals with T7, HeLa cell extract proteins (Homo sapiens, UniProt P63167).
T7 construct: endogenous in cells; host or cells: HeLa cell extract

Assay [8] concerns the target T8, HeLa cell extract proteins (Homo sapiens, UniProt Q04837).
T8 construct: endogenous in cells; host or cells: HeLa cell extract
T8 sequence (Q04837 17-148): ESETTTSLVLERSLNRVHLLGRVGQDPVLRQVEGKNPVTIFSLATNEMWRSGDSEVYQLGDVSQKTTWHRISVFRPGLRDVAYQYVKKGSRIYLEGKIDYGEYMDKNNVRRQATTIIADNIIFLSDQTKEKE

Assay [9] has as its target T9, HeLa cell extract proteins (Homo sapiens, UniProt Q53GQ0).
T9 construct: endogenous in cells; host or cells: HeLa cell extract
T9 sequence (Q53GQ0 1-312): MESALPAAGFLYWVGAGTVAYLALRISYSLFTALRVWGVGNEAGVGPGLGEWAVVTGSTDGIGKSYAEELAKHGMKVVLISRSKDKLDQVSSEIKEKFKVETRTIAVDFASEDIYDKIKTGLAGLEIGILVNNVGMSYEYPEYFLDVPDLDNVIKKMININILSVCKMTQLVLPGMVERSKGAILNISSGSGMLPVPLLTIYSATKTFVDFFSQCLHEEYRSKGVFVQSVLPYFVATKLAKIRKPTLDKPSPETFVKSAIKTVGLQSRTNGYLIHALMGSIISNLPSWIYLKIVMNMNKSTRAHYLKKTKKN

Assay [10] has as its target T10, HeLa cell extract proteins (Homo sapiens, UniProt Q969M3).
T10 construct: endogenous in cells; host or cells: HeLa cell extract

Assay [11] has as its target T11, HeLa cell extract proteins (Homo sapiens, UniProt Q96QK1).
T11 construct: endogenous in cells; host or cells: HeLa cell extract

Assay [12] deals with T12, HeLa cell extract proteins (Homo sapiens, UniProt Q9UHX1).
T12 construct: endogenous in cells; host or cells: HeLa cell extract
T12 sequence (Q9UHX1 1-559): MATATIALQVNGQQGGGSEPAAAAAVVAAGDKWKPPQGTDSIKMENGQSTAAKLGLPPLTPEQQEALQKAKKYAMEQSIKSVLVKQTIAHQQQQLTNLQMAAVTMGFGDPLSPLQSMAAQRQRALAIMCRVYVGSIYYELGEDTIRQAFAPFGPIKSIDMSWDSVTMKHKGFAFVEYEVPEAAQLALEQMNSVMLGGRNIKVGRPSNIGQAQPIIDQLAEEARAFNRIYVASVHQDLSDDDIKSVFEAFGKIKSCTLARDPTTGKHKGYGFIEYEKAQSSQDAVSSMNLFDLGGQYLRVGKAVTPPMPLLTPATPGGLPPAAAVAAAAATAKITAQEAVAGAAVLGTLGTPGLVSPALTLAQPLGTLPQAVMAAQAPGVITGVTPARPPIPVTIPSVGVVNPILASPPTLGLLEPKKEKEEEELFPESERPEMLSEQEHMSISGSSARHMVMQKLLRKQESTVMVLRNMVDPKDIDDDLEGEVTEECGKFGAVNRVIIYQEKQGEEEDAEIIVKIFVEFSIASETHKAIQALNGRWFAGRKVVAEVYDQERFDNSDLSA

Where [13] appears, read: captured protein HSD17B12, HeLa.

Read-outs that look alike come from different tables or passages of the source.

T10 sequence (Q969M3 whole entry): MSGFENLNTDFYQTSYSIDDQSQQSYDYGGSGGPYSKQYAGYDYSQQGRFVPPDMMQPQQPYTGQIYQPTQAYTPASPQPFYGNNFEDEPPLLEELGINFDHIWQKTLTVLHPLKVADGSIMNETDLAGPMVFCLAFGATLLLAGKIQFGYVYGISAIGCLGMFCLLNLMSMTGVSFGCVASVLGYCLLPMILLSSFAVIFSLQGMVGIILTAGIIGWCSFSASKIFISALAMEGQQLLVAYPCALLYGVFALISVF
T1 sequence (P26641 whole entry): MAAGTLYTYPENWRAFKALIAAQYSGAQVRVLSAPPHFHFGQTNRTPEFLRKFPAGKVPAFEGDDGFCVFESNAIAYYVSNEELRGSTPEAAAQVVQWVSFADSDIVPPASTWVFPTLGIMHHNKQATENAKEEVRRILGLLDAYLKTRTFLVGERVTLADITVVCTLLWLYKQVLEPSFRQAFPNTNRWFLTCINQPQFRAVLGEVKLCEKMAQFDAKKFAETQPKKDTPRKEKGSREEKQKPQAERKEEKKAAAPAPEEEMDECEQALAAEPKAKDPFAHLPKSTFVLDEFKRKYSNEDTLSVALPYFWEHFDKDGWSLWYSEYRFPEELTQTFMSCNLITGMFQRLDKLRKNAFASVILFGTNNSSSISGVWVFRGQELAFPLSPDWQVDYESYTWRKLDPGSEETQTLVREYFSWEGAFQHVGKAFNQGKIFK
T2 sequence (P31153 whole entry): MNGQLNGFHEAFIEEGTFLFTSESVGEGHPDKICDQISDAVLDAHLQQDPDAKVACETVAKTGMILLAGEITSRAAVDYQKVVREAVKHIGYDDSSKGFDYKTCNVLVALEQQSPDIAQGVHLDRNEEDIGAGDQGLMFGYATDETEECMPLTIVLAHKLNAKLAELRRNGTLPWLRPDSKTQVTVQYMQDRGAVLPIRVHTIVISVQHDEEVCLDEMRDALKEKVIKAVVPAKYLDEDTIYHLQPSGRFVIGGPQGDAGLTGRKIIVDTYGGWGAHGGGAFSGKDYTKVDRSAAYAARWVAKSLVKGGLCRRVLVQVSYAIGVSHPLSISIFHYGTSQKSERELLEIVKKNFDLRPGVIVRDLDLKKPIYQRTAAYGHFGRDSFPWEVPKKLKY
T7 sequence (P63167 whole entry): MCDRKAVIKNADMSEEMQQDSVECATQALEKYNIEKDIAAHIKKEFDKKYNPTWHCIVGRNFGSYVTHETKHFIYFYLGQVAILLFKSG

With `Nc1nc2cccc(-c3ccccc3)c2n1Cc1ccc(Cl)c(Cl)c1` [compound 3], the “fold changes relative to vehicle control” value in [1] (protein EEF1G, HeLa) is given as 0.94; in assay [2] (protein MAT2A, HeLa) it was 1.01; in assay [3] (captured protein NUDT1, HeLa) it was 0.62; in assay [4] (protein MAGEA9, HeLa), 0.92; in [5] (protein GDI2, HeLa), 0.72; in assay [6] (HeLa, protein HNRNPF), 1.36. For the same compound, the “fold changes relative to vehicle control” value in assay [7] (protein DYNLL1, HeLa) is listed as 0.96; in [8] (HeLa, protein SSBP1), 1; in assay [9] (setting [13]), 1.15; in [10] (captured protein YIPF5, HeLa), 0.72; in [11] (protein VPS35, HeLa), 0.96; in assay [12] (HeLa, protein PUF60), 1.02.
As for `NCCOCCOCC(=O)Nc1nc2ncc(CNc3ccc(C(=O)NC(CCC(=O)O)C(=O)O)cc3)nc2c(=O)[nH]1` (stereo not drawn) [compound 6], the “fold changes relative to vehicle control” value in assay [1] (HeLa, protein EEF1G) turned out to be 1.15; in assay [2] (HeLa, protein MAT2A) it was 1.16; in [3] (protein NUDT1, HeLa) it was 1.16; in [4] (HeLa, protein MAGEA9), 1.04; in [5] (protein GDI2, HeLa), 1.03; in [6] (HeLa, captured protein HNRNPF) it was 0.92. The “fold changes relative to vehicle control” value in [7] (HeLa, captured protein DYNLL1) came to 1.14; in [8] (HeLa, protein SSBP1), 0.96; in [9] (protein HSD17B12, HeLa) it was 0.96; in [10] (HeLa, captured protein YIPF5), 0.93; in assay [11] (HeLa, protein VPS35), 1.15; in assay [12] (HeLa, captured protein PUF60) it was 0.92.
On to `Nc1nc2[nH]cc(CCc3ccc(C(=O)N[C@@H](CCC(=O)O)C(=O)O)cc3)c2c(=O)[nH]1` [PTX, pemetrexed], for which the “fold changes relative to vehicle control” value is 1.05 in assay [1]; 1.07 in assay [2]; 0.36 in assay [3]; 0.82 in assay [4]; 0.9 in assay [5]; 0.87 in assay [6]. The “fold changes relative to vehicle control” value in assay [7] is given as 1.06; in [8], 1; in [9] it was 0.91; in assay [10], 0.98; in [11], 1.05; in assay [12], 0.9.
Regarding `Nc1nc2c(c(=O)[nH]1)N(C=O)C(CNc1ccc(C(=O)N[C@@H](CCC(=O)O)C(=O)O)cc1)CN2` (stereo partly drawn) [LEU, leucovorin], the “fold changes relative to vehicle control” value was found to be 1 in assay [1] (HeLa, protein EEF1G); 0.99 in [2] (HeLa, protein MAT2A); 1.19 in assay [3] (protein NUDT1, HeLa); 0.95 in assay [4] (HeLa, protein MAGEA9); 0.93 in assay [5] (protein GDI2, HeLa); 0.98 in assay [6] (HeLa, captured protein HNRNPF). Besides, the “fold changes relative to vehicle control” value in assay [7] (HeLa, captured protein DYNLL1) came to 1.05; in assay [8] (HeLa, protein SSBP1) it was 1.07; in assay [9] (protein HSD17B12, HeLa) it was 0.78; in assay [10] (HeLa, captured protein YIPF5), 0.94; in assay [11] (HeLa, protein VPS35), 0.91; in assay [12] (HeLa, captured protein PUF60), 1.01.
As for `CCCCCCOc1ccc(Cc2cnc(N)nc2N)cc1` [compound 1], the “fold changes relative to vehicle control” value in assay [1] (protein EEF1G, HeLa) is 1.31; in assay [2] (protein MAT2A, HeLa) it was 1.21; in [3] (captured protein NUDT1, HeLa), 1.02; in assay [4] (protein MAGEA9, HeLa), 0.78; in assay [5] (protein GDI2, HeLa) it was 1.06; in [6] (HeLa, protein HNRNPF), 0.95. In addition, the “fold changes relative to vehicle control” value in assay [7] (protein DYNLL1, HeLa) is 1.08; in assay [8] (HeLa, protein SSBP1), 1.05; in assay [9] (setting [13]) it was 0.87; in assay [10] (captured protein YIPF5, HeLa), 1.43; in assay [11] (protein VPS35, HeLa) it was 1.13; in [12] (HeLa, protein PUF60), 1.01.
As to `NCCCNc1ccc(C(=O)NC(CCC(=O)O)C(=O)O)cc1` (stereo not drawn) [compound 7], the “fold changes relative to vehicle control” value in [1] (HeLa, protein EEF1G) is listed as 0.94; in assay [2] (HeLa, protein MAT2A), 1; in [3] (protein NUDT1, HeLa), 1.2; in assay [4] (HeLa, protein MAGEA9) it was 1; in assay [5] (protein GDI2, HeLa) it was 1.02; in assay [6] (HeLa, captured protein HNRNPF), 0.95. Also, the “fold changes relative to vehicle control” value in [7] (HeLa, captured protein DYNLL1) was determined as 1.18; in assay [8] (HeLa, protein SSBP1) it was 0.95; in assay [9] (protein HSD17B12, HeLa), 1.19; in assay [10] (HeLa, captured protein YIPF5), 0.83; in assay [11] (HeLa, protein VPS35), 1.1; in [12] (HeLa, captured protein PUF60), 0.95.
On to `CCCCCCOc1cccc(Cc2cnc(N)nc2N)c1` [compound 2], for which the “fold changes relative to vehicle control” value in assay [1] (protein EEF1G, HeLa) was 1.67; in assay [2] (protein MAT2A, HeLa), 1.55; in assay [3] (captured protein NUDT1, HeLa) it was 0.11; in [4] (protein MAGEA9, HeLa), 1.24; in assay [5] (protein GDI2, HeLa) it was 1.81; in assay [6] (HeLa, protein HNRNPF), 0.88. Also, the “fold changes relative to vehicle control” value in [7] (protein DYNLL1, HeLa) was 1.05; in assay [8] (HeLa, protein SSBP1) it was 0.95; in assay [9] (setting [13]), 0.91; in assay [10] (captured protein YIPF5, HeLa), 1.15; in assay [11] (protein VPS35, HeLa), 1.7; in assay [12] (HeLa, protein PUF60) it was 1.05.
